Among the data in BindingDB's records for patent US12435061 (Kamari Pharma, 2025) are IC50 values, retold here.

For this assay, the target named is T1, Transient receptor potential cation channel subfamily V member 3 (Homo sapiens, UniProt Q8NET8).
T1 sequence (Q8NET8 whole entry): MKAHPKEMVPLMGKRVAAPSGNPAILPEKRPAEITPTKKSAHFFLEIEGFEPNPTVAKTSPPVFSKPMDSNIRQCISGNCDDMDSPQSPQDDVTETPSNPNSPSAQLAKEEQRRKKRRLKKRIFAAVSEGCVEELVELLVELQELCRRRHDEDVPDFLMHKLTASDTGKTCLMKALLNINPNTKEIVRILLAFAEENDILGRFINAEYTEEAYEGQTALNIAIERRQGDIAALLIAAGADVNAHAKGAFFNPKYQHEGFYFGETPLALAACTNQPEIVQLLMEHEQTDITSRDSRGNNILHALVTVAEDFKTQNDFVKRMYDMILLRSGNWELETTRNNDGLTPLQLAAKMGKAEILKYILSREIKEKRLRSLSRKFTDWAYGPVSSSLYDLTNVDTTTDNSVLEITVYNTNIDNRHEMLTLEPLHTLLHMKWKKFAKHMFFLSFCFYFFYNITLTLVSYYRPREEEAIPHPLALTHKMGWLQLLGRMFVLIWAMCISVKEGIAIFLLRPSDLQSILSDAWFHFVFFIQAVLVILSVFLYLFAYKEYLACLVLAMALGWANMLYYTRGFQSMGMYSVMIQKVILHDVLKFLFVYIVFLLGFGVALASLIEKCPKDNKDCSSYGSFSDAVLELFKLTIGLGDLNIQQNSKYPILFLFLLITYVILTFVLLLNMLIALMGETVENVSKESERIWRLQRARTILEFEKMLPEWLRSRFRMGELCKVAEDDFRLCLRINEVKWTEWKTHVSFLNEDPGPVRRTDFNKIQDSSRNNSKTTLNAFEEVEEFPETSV
The experiment in a line: Patch Clamp Experiments. On the procedure: TRPV3 cells were induced 20-48 hours, removed from growth plates, and replated at low density (to attain good single-cell physical separation) on glass coverslips for measurement. In some cases, cells were grown in low density overnight on glass coverslips. Patch clamp recordings were made in the whole-cell mode with a holding potential of −40 mV. Every 5 seconds, a voltage ramp was applied from −120 to +100 mV, 400 ms in duration. Currents elicited were quantified at −80 mV and +80 mV. […] External solution was Ringer's solution described above.
A general note: The patch-clamp technique gives a direct electrical read-out from membranes.

Where only a bound is given, the exact number is not on record here.

In the case of `O=[N+](O)c1cc(-c2ccccc2)ccc1N1CC[C@H](Oc2ccc3cc(Cl)ccc3n2)C1` [US12435061, Compound 1-70], the IC50 was > 3.2 µM.
As to `CCc1ccccc1Oc1ccc(N2CC[C@H](Oc3ccc(C(F)(F)F)cn3)C2)c(CO)n1` [US12435061, Compound 1-212], the 50% inhibitory concentration (IC50) is > 3.2 µM.

One may read the IC50 as the concentration that inhibits the measured activity by half. A higher IC50 goes with a need for much substance.
